In brackets after ≈: the same amount, converted by molar mass.
Test system: Mycobacterium tuberculosis
Experiment: Antituberculosis activity against multi drug-resistant Mycobacterium tuberculosis after 7 days using resazurin dye by broth microdilution assay
Format: functional
Conditions: 168 h

Structure (SMILES)	MIC [µM]
Cc1nc[nH]c1/C=N/Nc1cc(C(F)(F)F)nc2c(C(F)(F)F)cccc12	6.25 (≈ 2.42 µg/mL)
Fc1ccccc1NC(=S)NNc1cc(C(F)(F)F)nc2c(C(F)(F)F)cccc12	> 50
Cn1cc(Cl)c(/C=N/Nc2cc(C(F)(F)F)nc3c(C(F)(F)F)cccc23)n1	6.25 (≈ 2.64 µg/mL)
N#Cc1cccc(NC(=O)NNc2cc(C(F)(F)F)nc3c(C(F)(F)F)cccc23)c1	> 50
COc1ccc(/C=N/Nc2cc(C(F)(F)F)nc3c(C(F)(F)F)cccc23)cc1O	12.5 (≈ 5.37 µg/mL)
FC(F)C(F)(F)Oc1cccc(/C=N/Nc2cc(C(F)(F)F)nc3c(C(F)(F)F)cccc23)c1	25 (≈ 12.5 µg/mL)
COc1ccccc1NC(=O)NNc1cc(C(F)(F)F)nc2c(C(F)(F)F)cccc12	12.5 (≈ 5.55 µg/mL)
FC(F)(F)c1cc(N/N=C/c2c[nH]cn2)c2cccc(C(F)(F)F)c2n1	6.25 (≈ 2.33 µg/mL)
FC(F)(F)c1cc(N/N=C/c2cccs2)c2cccc(C(F)(F)F)c2n1	> 50
COCCNC(=S)NNc1cc(C(F)(F)F)nc2c(C(F)(F)F)cccc12	25 (≈ 10.3 µg/mL)
Cc1cccc2c(/C=N/Nc3cc(C(F)(F)F)nc4c(C(F)(F)F)cccc34)c[nH]c12	12.5 (≈ 5.45 µg/mL)
FC(F)(F)c1cc(N/N=C/C2CCCCC2)c2cccc(C(F)(F)F)c2n1	6.25 (≈ 2.43 µg/mL)
CCCCCNC(=O)NNc1cc(C(F)(F)F)nc2c(C(F)(F)F)cccc12	> 50
NNC(=O)c1ccncc1 [ISONIAZID]	12.5 (≈ 1.71 µg/mL)
Cn1nnc2cc(/C=N/Nc3cc(C(F)(F)F)nc4c(C(F)(F)F)cccc34)ccc21	25 (≈ 11 µg/mL)
Oc1cc(F)ccc1/C=N/Nc1cc(C(F)(F)F)nc2c(C(F)(F)F)cccc12	> 50
FC(F)(F)Oc1cccc(/C=N/Nc2cc(C(F)(F)F)nc3c(C(F)(F)F)cccc23)c1	12.5 (≈ 5.84 µg/mL)
FC(F)(F)c1cc(N/N=C/c2ccc3nonc3c2)c2cccc(C(F)(F)F)c2n1	12.5 (≈ 5.32 µg/mL)
Cn1cccc1/C=N/Nc1cc(C(F)(F)F)nc2c(C(F)(F)F)cccc12	25 (≈ 9.66 µg/mL)
CC(=O)OCc1ccc(/C=N/Nc2cc(C(F)(F)F)nc3c(C(F)(F)F)cccc23)o1	> 50
FC(F)(F)c1cc(N/N=C/c2ccc3c(c2)CCO3)c2cccc(C(F)(F)F)c2n1	12.5 (≈ 5.32 µg/mL)
Cc1cc(C)cc(NC(=O)NNc2cc(C(F)(F)F)nc3c(C(F)(F)F)cccc23)c1	6.25 (≈ 2.76 µg/mL)
CCCCCCC/C=N/Nc1cc(C(F)(F)F)nc2c(C(F)(F)F)cccc12	6.25 (≈ 2.53 µg/mL)
COc1ccc(/C=N/Nc2cc(C(F)(F)F)nc3c(C(F)(F)F)cccc23)c(F)c1	6.25 (≈ 2.7 µg/mL)
COc1ccc2[nH]cc(/C=N/Nc3cc(C(F)(F)F)nc4c(C(F)(F)F)cccc34)c2c1	> 50
O=C(NNc1cc(C(F)(F)F)nc2c(C(F)(F)F)cccc12)Nc1ccc(F)cc1	12.5 (≈ 5.4 µg/mL)
FC(F)(F)c1cc(N/N=C/c2cocc2Br)c2cccc(C(F)(F)F)c2n1	> 50
FC(F)(F)c1cc(N/N=C/c2cccnc2)c2cccc(C(F)(F)F)c2n1	> 50
CO[C@H]1/C=C/O[C@@]2(C)Oc3c(C)c(O)c4c(O)c(c(/C=N/N5CCN(C)CC5)c(O)c4c3C2=O)NC(=O)/C(C)=C\C=C\[C@H](C)[C@H](O)[C@@H](C)[C@@H](O)[C@@H](C)[C@H](OC(C)=O)[C@@H]1C [RIFAMPIN]	25 (≈ 20.6 µg/mL)
